Results reported in patent US11174216B2, “Lipids that increase insulin sensitivity and methods of using the same” (Beth Israel Deaconess Medical Center, Inc., priority 2012, dated 2021).

Tests used:
[1] = test system: Human islets; assay: Insulin release from primary human islet cells; format: cell-based; settings: 45 min
Protocol: Two human donors provided cells used in these studies. Donor 1 was a person, 5′0″, 157 lbs, with a BMI of 30.5, HbA1C was 5.8, who died from a stroke, but it was witnessed and they had no downtime. Islets were 80% pure and 95% viable. After arrival, islets were incubated overnight in human islet media before stimulation with glucose in presence and absence of 5-PAHSA (lipid A-5). Note 1 IU of Human Insulin=6 nmol=34.8 μg Insulin.
Human islets were divided into ten groups [100 islets per condition]
A] Low glucose [2.5 mM]; B] High glucose [20.0 mM]; C] Low glucose [2.5 mM]+2.5 μL/mL Methanol; D] High glucose [20.0 mM]+2.5 μL/mL Methanol; E] Low glucose+20 μM Lipid A-5; F] High glucose+20 μM Lipid A-5; G] Low glucose+50 μM Lipid A-5; H] High glucose+50 μM Lipid A-5.
Islets were cultured overnight in Human Islet media and next day incubated with KRB buffer for 4 h prior to glucose stimulation.
Following KRB incubation, islets were stimulated with glucose [2.5 mM & 20.0 mM] in the presence and absence of Lipid A-5 [20 & 50 μM] for 45 min
At the end of glucose stimulation the amount of insulin released [μ IU/mL] into the media was measured using Human Insulin ELISA kit. And the insulin content from the islets were extracted to express insulin released into the media as μ IU/mL/islet content. […]

[2] = molecular target: T1, purified CEL (Homo sapiens, UniProt P19835); assay: Hydrolysis of 9-PAHSA by purified CEL; format: biochemical; settings: micellar concentrations of NaTC
T1 construct: purchased R&D Systems
T1 sequence (P19835 21-753): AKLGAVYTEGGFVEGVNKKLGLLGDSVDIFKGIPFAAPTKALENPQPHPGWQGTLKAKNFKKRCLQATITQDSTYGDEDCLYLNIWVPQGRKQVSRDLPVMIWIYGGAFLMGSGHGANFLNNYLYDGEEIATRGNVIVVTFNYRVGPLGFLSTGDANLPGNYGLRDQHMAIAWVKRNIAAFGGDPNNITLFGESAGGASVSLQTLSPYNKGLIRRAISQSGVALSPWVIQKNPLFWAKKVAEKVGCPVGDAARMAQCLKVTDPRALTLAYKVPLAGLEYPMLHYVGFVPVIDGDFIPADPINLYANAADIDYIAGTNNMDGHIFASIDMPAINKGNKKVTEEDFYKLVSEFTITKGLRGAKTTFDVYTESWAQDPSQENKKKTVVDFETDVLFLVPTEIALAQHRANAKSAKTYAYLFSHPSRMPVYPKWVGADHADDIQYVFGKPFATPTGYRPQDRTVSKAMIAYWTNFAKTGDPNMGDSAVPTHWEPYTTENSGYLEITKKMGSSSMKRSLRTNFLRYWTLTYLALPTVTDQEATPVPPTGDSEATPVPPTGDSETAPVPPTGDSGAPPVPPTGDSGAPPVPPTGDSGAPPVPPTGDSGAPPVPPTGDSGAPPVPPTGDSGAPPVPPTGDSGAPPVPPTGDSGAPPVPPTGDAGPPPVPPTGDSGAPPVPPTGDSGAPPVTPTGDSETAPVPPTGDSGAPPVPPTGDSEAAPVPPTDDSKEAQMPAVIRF
Text: To confirm the identification of CEL as a FAHFA hydrolase, a small amount of purified enzyme (available commercially from R&D Systems) was used.

[3] = test system: FAHFA hydrolysis activity in liver lysate
[4] = test system: FAHFA hydrolysis activity in pancreas membrane lysate; assay: FAHFA hydrolysis activity assay, pancreas membrane lysate; settings: 1 mg/ml protein, 100 uM 9-PAHSA, 30 min, room temperature

Compound	Glucose Stimulated Insulin Secretion ([1]; human islets from Donor 1, 20 and 50 uM)	Glucose Stimulated Insulin Secretion ([1]; human islets from Donor 2, 20 uM)	hydrolysis, measured by 9-HSA production [2]	hydrolysis of 9-PAHSA to 9-HSA [3]	FAHFA hydrolysis activity, pancreas membrane versus liver membrane [4]
CCCCCCCCCCCCCCCC(=O)OC(CCCCCCCCCCCCC)CCCC(=O)O (centres unmarked) [5-PAHSA]	induces Glucose Stimulated Insulin Secretion	induces Glucose Stimulated Insulin Secretion	–	–	–
CCCCCCCCCCCCCCCC(=O)OC(CCCCCCCCC)CCCCCCCC(=O)O (centres unmarked) [9-PAHSA, palmitoyl-9-hydroxystearic acid]	–	–	substantial hydrolysis	Substantial 9-HSA production	~10 fold
